{"source": "patent US20250041286A1", "about": "“CANCER TREATMENT USING KETOTIFEN IN COMBINATION WITH A CHECKPOINT INHIBITOR” (Materia Therapeutics Inc., priority 2021, published 2025)", "key": {"[1]": {"tested_on": "CD117 protein", "assay": "Western blot against CD117 protein (mast cell number) in tumors", "type": "in vivo, mouse", "settings": "subtherapeutic doses of ketotifen"}, "[2]": {"tested_on": "MCA205 tumors", "assay": "qPCR mRNA expression levels in tumors", "type": "in vivo, mouse", "settings": "10 mg/kg ketotifen", "experimental": "Total RNA was isolated from breast tumors according to the standard Trizol-based protocol (Invitrogen), and cDNA synthesis was performed using reverse transcriptase III (RT-III) enzyme and random hexamers (Invitrogen). Real-time polymerase chain reaction was performed using Sybr Fast Universal Master Mix (KAPA). Reactions were performed using a CFX-96 real-time PCR detection system (BioRad) at the following conditions: 95° C. for 2 minutes, 95° C. for 2 seconds, 60° C. for 20 seconds, 60° C. for 1 second, steps 2-4 for 39 cycles. Real-time PCR analysis and calculation of changes in gene expression between compared groups was performed using the ΔΔ^Ct method. Relative gene expression was normalized based on the expression of β-actin. For qPCR analysis, 3-5 biological samples were used per treatment and 3 technical replicates for each sample.\nmRNA expression levels were evaluated in both mouse sarcoma models by qPCR, as described above.\nRT-qPCR, as described above, […]."}, "[3]": {"tested_on": "K7M2wt tumors", "assay": "Ultrasound shear wave elastography of tumor stiffness", "type": "in vivo, mouse", "settings": "10 mg/kg daily ketotifen", "experimental": "(§1) The mechanotherapeutic potential of ketotifen in reducing matrix stiffness was primarily assessed non-invasively and longitudinally using ultrasound elastography. Briefly, assessment of tumor elastic modulus was […] via shear wave elastography using a Philips EPIQ Elite Ultrasound scanner with an eL18-4 linear array, approved for clinical scanning was performed as described in previous study. Elastic modulus values of the areas of the region of interest (ROI) with the highest shear wave quality were obtained. The elastic modulus value presented is the average within the tumor region. Shear wave imaging of MCA205 tumors was performed prior to ketotifen treatment on day 7, to determine baseline level of tumor stiffness, after three days of treatment (day 11), and on the last day of treatment just before tumor removal (day 15). Ultrasound imaging of K7M2wt tumors was performed on day 24, 28, and 31. The effect of ketotifen on chemo-immunotherapy combination with regards to MCA205 tissue elasticity was assessed on day 7 before the first cycle of doxorubicin+anti-PD-L1 treatment, one day after second cycle (day 11) and two days after the last cycle (day 15). Ultrasound imaging of K7M2wt tumors was performed on day 22 (i.e., four days post daily ketotifen and before first cycle of combination treatment) and upon completion of treatment (day 32)."}, "[4]": {"tested_on": "MCA205 tumors", "assay": "Ultrasound shear wave elastography of tumor stiffness", "type": "in vivo, mouse", "settings": "10 mg/kg daily ketotifen, dose that reduced stiffness the most", "experimental": "as §1"}, "[5]": {"tested_on": "K7M2wt tumors", "assay": "Atomic force microscopy (AFM) elastic modulus of tumor samples ex vivo", "type": "in vivo, mouse", "settings": "ketotifen-treated K7M2wt tumors, microscopic scale", "experimental": "Following the confirmation of the presence of MCs in human sarcoma samples and the in vitro characterization of the MC-fibroblast interaction, it was assessed whether inhibition of MC degranulation would reduce fibrosis in murine sarcoma models. The impact of MC degranulation by treating MCA205 fibrosarcoma and K7M2wt osteosarcoma tumors with ketotifen was assessed. Ketotifen was administered in four different doses (1, 5, 10, and 25 mg/kg), once a day by i.p. injection for a period of 8 days (as shown in FIG. 4A). […] The effect of ketotifen on tumor stiffness in vivo was monitored using shear wave elastography (SWE). SWE measurements were performed before, after 3 days (for MCA205) or 4 days (for K7M2wt) of ketotifen treatment and upon study completion. […] The pertinent reduction in tumor stiffness was further validated ex vivo at the microscopic tissue scale using atomic force microscopy (AFM) of tumor samples. […] In FIG. 19B, the left peak of lower elastic modulus corresponds to compliant cancer cells, while the tail of higher elastic modulus (dashed rectangles) represents the contribution of the stiffer matrix components, mainly collagen. Data are presented as mean±SE. Statistical analyses were performed by comparing means between two independent groups using the ordinary one-way ANOVA test."}, "[6]": {"tested_on": "NIH3T3 cells", "assay": "Myofibroblast differentiation in co-culture, αSMA and collagen I immunofluorescence", "type": "cell-based, murine", "settings": "co-culture with TGFβ and activated MCs", "experimental": "Given that both MCs and fibroblasts are present in the TME, the consequences of MC activation on myofibroblasts was explored using a co-culture assay in which murine MC/9 MCs and NIH3T3 myofibroblasts were separated by a transwell chamber with micropores that only allowed chemical communication (FIG. 13A). In this system, degranulation efficiency was determined by measuring the concentration of β-hexosaminidase (β-hex) in the supernatant. MC degranulation was induced through exposure to compound 48/80 (C48/80), which binds to the MRGPRB2 receptor (the orthologue of the human G-protein-coupled receptor MRGPRX2). […] Co-cultures treated with a vehicle control and Triton X-100 were used as internal assay control to evaluate background and maximum β-hex release, respectively. Transforming growth factor (TGF)-β1 was used as a fibroblast activator due to its capacity to induce a myofibroblast phenotype of the NIH3T3 cells. MC/9 cells were cultivated with NIH3T3 cells for 24 hours and then treated with either ketotifen or TGFβ for additional 24 hours in low serum medium, followed by a 30 minute sensitization with C48/80.\nTo further explore the MC-fibroblast interaction, the differentiation process of NIH3T3 cells in the co-culture system was monitored by assaying levels of αSMA and collagen I, which are two markers of the myofibroblast phenotype, by immunofluorescence staining (FIG. 13C, FIG. 13D, and FIG. 13E)."}, "[7]": {"tested_on": "MCA205 tumors", "assay": "Vessel normalization, NG2/CD31 pericyte coverage and open lumen fraction", "type": "in vivo, mouse", "experimental": "To assess whether MC inhibition could normalize the structure of tumor blood vessels, which can further improve perfusion, the effect of ketotifen on vascular permeability was assessed. […] Instead, an upregulation of IFN-γ transcription levels in MCA205 tumors following 10 mg/kg ketotifen treatment was observed (FIG. 1D). IFNγ is an angiostatic protein whose concentration in the TME has been related to vessel normalization and reduced vessel leakiness."}}, "note": "Entries after “also recorded” stand apart in the source; their conditions may differ.", "data": [{"smiles": "CN1CCC(=C2c3ccccc3CC(=O)c3sccc32)CC1", "note": "[ketotifen]", "values": [{"measurement": "mast cell (MC) number as determined by CD117 protein levels", "setting": "[1]", "result": "remain unaffected"}, {"measurement": "mRNA expression of ICAM", "setting": "[2]", "result": "increased"}, {"measurement": "mRNA expression of P-selectin (P-sel)", "setting": "[2]", "result": "increased"}, {"measurement": "mRNA levels of IFN-γ", "setting": "[2]", "result": "upregulated; also recorded: upregulation"}, {"measurement": "mRNA levels of VEGF", "setting": "[2]", "result": "without affecting; also recorded: a reduction in VEGF transcripts was not observed"}, {"measurement": "mRNA levels of collagen I encoding gene (Col1A1)", "setting": "[2]", "result": "reduced the mRNA levels of collagen I encoding gene (Col1A1) and connective tissue growth factor (CTGR), although not to a statistically significant extent"}, {"measurement": "mRNA levels of connective tissue growth factor (CTGR)", "setting": "[2]", "result": "reduced the mRNA levels of collagen I encoding gene (Col1A1) and connective tissue growth factor (CTGR), although not to a statistically significant extent"}, {"measurement": "mRNA levels of hyaluronan synthase 2 (Has2)", "setting": "[2]", "result": "no effect"}, {"measurement": "mRNA levels of hyaluronan synthase 3 (Has3)", "setting": "[2]", "result": "no effect"}, {"measurement": "tissue stiffness (Young's modulus)", "setting": "[3]", "result": "similarly benefited"}, {"measurement": "Young's modulus (tissue stiffness)", "setting": "[4]", "result": 20, "unit": "kPa"}, {"measurement": "average value of elastic modulus by AFM", "setting": "[5]", "result": "reduction"}, {"measurement": "myofibroblast differentiation (αSMA and collagen I protein expression)", "setting": "[6]", "result": "impaired this myofibroblast differentiation"}, {"measurement": "fraction of vessels with open lumen", "setting": "[7]; MCA205 tumors, CD31 image analysis", "result": "increase the fraction of vessels with open lumen"}, {"measurement": "pericyte coverage of the tumor vasculature (NG2/CD31 colocalization)", "setting": "[7]; ketotifen 5, 10 and 25 mg/kg compared to the lowest dose and untreated control", "result": "increase"}]}]}
